Laboratory results from patent EP3800188A1, “SUBSTITUTED PYRAZOLOPYRIMIDINES AS IRAK4 INHIBITORS” (Bayer AG, priority 2019, dated 2021).

target: T1, human IRAK4 (Homo sapiens, UniProt Q9NWZ3); experiment: Human IRAK4 kinase activity inhibition assay (IRAK4 TR-FRET assay); format: biochemical; conditions: 1 mM ATP, GST-human IRAK4, average or median values
T1 construct: GST (N); made in house; host or cells: baculovirus-infected Hi5 (BTI-TN-5B1-4) insect cells
T1 sequence (Q9NWZ3 1-460): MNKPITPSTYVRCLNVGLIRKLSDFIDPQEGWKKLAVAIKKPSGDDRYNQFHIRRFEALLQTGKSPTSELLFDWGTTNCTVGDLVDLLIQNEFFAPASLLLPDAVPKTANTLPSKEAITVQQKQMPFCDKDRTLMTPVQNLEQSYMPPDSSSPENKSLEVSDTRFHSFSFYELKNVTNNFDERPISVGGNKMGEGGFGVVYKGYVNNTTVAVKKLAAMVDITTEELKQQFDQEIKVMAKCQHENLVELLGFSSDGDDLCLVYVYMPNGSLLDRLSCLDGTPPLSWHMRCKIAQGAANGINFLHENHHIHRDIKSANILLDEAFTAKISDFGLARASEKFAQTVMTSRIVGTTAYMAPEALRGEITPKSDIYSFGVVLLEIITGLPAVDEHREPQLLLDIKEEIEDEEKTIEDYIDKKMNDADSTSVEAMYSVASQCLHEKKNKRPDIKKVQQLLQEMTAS
Description: The IRAK4-inhibitory activity of the inventive substances was measured in the IRAK4 TR-FRET assay (TR-FRET = Time Resolved Fluorescence Resonance Energy Transfer) described hereinafter.
Recombinant fusion protein from N-terminal GST (glutathione S-transferase) and human IRAK4, expressed in baculovirus-infected insect cells (Hi5, BTI-TN-5B1-4, cell line purchased from Invitrogen, catalogue No. B855-02) and purified via affinity chromatography, was used as enzyme. The substrate used for the kinase reaction was the biotinylated peptide biotin-Ahx-[…] (C-terminus in amide form) which can be purchased, for example, from Biosyntan GmbH (Berlin-Buch). For the assay, 11 different concentrations in the range from 20 µM to 0.073 nM were prepared from a 2 mM DMSO solution of the test substance. 50 nl of the respective 100fold concentrated test compound solutions in DMSO were pipetted into a black low-volume 384-well microtitre plate or a black 1536-well microtiter plate (both Greiner Bio-One, Frickenhausen, Germany), 2 µl of a solution of IRAK4 in assay buffer [50 mM HEPES pH 7.5, 5mM MgCl2, 1.0 mM dithiothreitol, 30 µM activated sodium orthovanadate, 0.1% (w/v) of bovine gamma-globulin (BGG) 0.04% (v/v) nonidet-P40 (Sigma)] were added and the mixture was incubated for 15 min to allow prebinding of the substances to the enzyme prior to the kinase reaction. […] The concentration of the IRAK4 was adjusted to the respective activity of the enzyme and set such that the assay was carried out in the linear range. Typical concentrations were in the order of about 0.2 nM. The reaction was stopped by addition of 5 µl of a solution of TR-FRET detection reagents [0.1 µM streptavidin-XL665 (Cisbio Bioassays; France, catalogue No. 610SAXLG)] and 1.5 nM anti-phosphoserine antibody [Merck Millipore, "STK Antibody", catalogue No. 35-002] and 0.6 nM LANCE EU-W1024-labelled anti-mouse-IgG antibody (Perkin-Elmer, product No. AD0077; alternatively, it is possible to use a terbium cryptate-labelled anti-mouse-IgG antibody from Cisbio Bioassays) in aqueous EDTA solution (100 mM EDTA, 0.4 % [w/v] bovine serum albumin [BSA] in 25 mM HEPES pH 7.5). The resulting mixture was incubated at 22°C for 1 h to allow formation of a complex of the biotinylated phosphorylated substrate and the detection reagents. The amount of the phosphorylated substrate was then evaluated by measuring the resonance energy transfer from europium chelate-labelled anti-mouse-IgG antibody to streptavidin-XL665. To this end, the fluorescence emissions at 620 nm and 665 nm were measured after excitation at 350 nm in a TR-FRET measuring instrument, for example a Rubystar (BMG Labtechnologies, Offenburg, Germany) or a Viewlux (Perkin-Elmer). The ratio of the emissions at 665 nm and 622 nm was taken as a measure of the amount of phosphorylated substrate. The data were normalized (enzyme reaction without test substance = 0% inhibition; all other assay components but no enzyme = 100% inhibition).

Row | SMILES | IC50 [nM]
1 | CC(C)(O)C1CCN(c2nc(N[C@H]3CCCNC3=O)nc3c2cnn3-c2cccc(C(F)(F)F)c2)CC1 [Example I-11-1, (3S)-3-({4-[4-(2-hydroxypropan-2-yl)piperidin-1-yl]-1-[3-(trifluoromethyl)phenyl]-1H-pyrazolo[3,4-d]pyrimidin-6-yl}amino)piperidin-2-one] | 139
2 | CC(C)(O)C1CCN(c2nc(N[C@@H]3CCCNC3=O)nc3c2cnn3-c2cccc(C(F)(F)F)c2)CC1 [Example I-11-2, (3R)-3-({4-[4-(2-hydroxypropan-2-yl)piperidin-1-yl]-1-[3-(trifluoromethyl)phenyl]-1H-pyrazolo[3,4-d]pyrimidin-6-yl}amino)piperidin-2-one] | 151
3 | CN1CC[C@@H](Nc2nc(N3CCC(C(C)(C)O)CC3)c3cnn(-c4cccc(C(F)(F)F)c4)c3n2)C1 [Example I-13-2, 2-[1-(6-{[(3R)-1-methylpyrrolidin-3-yl]amino}-1-[3-(trifluoromethyl)phenyl]-1H-pyrazolo[3,4-d]pyrimidin-4-yl)piperidin-4-yl]propan-2-ol] | 32.7
4 | CC(C)(O)C1CCN(c2nc(N[C@H]3CCOC3)nc3c2cnn3-c2cccc(C(F)(F)F)c2)CC1 [Example I-16-1, 2-(1-{6-[(3S)-tetrahydrofuran-3-ylamino]-1-[3-(trifluoromethyl)phenyl]-1H-pyrazolo[3,4-d]pyrimidin-4-yl}piperidin-4-yl)propan-2-ol] | 19.4
5 | O=C1C[C@@H](Nc2nc(N3C[C@H](O)[C@@H](O)C3)c3cnn(-c4cccc(C(F)(F)F)c4)c3n2)CN1 [Example I-20-1, (4R)-4-({4-[(3S,4S)-3,4-dihydroxypyrrolidin-1-yl]-1-[3-(trifluoromethyl)phenyl]-1H-pyrazolo[3,4-d]pyrimidin-6-yl}amino)pyrrolidin-2-one] | 278
6 | O=C1C[C@H](Nc2nc(N3C[C@H](O)[C@@H](O)C3)c3cnn(-c4cccc(C(F)(F)F)c4)c3n2)CN1 [Example I-20-2, (4S)-4-({4-[(3S,4S)-3,4-dihydroxypyrrolidin-1-yl]-1-[3-(trifluoromethyl)phenyl]-1H-pyrazolo[3,4-d]pyrimidin-6-yl}amino)pyrrolidin-2-one] | 14.9
7 | CN1CC[C@@H](Nc2nc(N3CCC(CC(C)(C)O)CC3)c3cnn(-c4cccc(C(F)(F)F)c4)c3n2)C1 [Example I-25-1, 2-methyl-1-[1-(6-{[(3R)-1-methylpyrrolidin-3-yl]amino}-1-[3-(trifluoromethyl)phenyl]-1H-pyrazolo[3,4-d]pyrimidin-4-yl)piperidin-4-yl]propan-2-ol] | 40.3
8 | CN1CC[C@H](Nc2nc(N3CCC(CC(C)(C)O)CC3)c3cnn(-c4cccc(C(F)(F)F)c4)c3n2)C1 [Example I-25-2, 2-methyl-1-[1-(6-{[(3S)-1-methylpyrrolidin-3-yl]amino}-1-[3-(trifluoromethyl)phenyl]-1H-pyrazolo[3,4-d]pyrimidin-4-yl)piperidin-4-yl]propan-2-ol] | 12
9 | O=S1(=O)CCN(C2CN(c3nc(N[C@@H]4CCOC4)nc4c3cnn4-c3cccc(C(F)(F)F)c3)C2)CC1 [Example I-26-1, 4-[3-(1,1-dioxidothiomorpholin-4-yl)azetidin-1-yl]-N-[(3R)-tetrahydrofuran-3-yl]-1-[3-(trifluoromethyl)phenyl]-1H-pyrazolo[3,4-d]pyrimidin-6-amine] | 37.3
10 | O=S1(=O)CCN(C2CN(c3nc(N[C@H]4CCOC4)nc4c3cnn4-c3cccc(C(F)(F)F)c3)C2)CC1 [Example I-26-2, 4-[3-(1,1-dioxidothiomorpholin-4-yl)azetidin-1-yl]-N-[(3S)-tetrahydrofuran-3-yl]-1-[3-(trifluoromethyl)phenyl]-1H-pyrazolo[3,4-d]pyrimidin-6-amine] | 57.8

Second part, the compound after the results:

Row | IC50 [nM] | SMILES
11 | 131 | CC(C)(O)C1CCN(c2nc(NC3CCCS(=O)(=O)C3)nc3c2cnn3-c2cccc(C(F)(F)F)c2)CC1 (centres unmarked) [Example I-10, 2-(1-{6-[(1,1-dioxidotetrahydro-2H-thiopyran-3-yl)amino]-1-[3-(trifluoromethyl)phenyl]-1H-pyrazolo[3,4-d]pyrimidin-4-yl)piperidin-4-yl)propan-2-ol]
12 | 51.2 | CC(C)(O)C1CCN(c2nc(N[C@H]3CCNC3=O)nc3c2cnn3-c2cccc(C(F)(F)F)c2)CC1 [Example I-12, (3S)-3-({4-[4-(2-hydroxypropan-2-yl)piperidin-1-yl]-1-[3-(trifluoromethyl)phenyl]-1H-pyrazolo[3,4-d]pyrimidin-6-yl}amino)pyrrolidin-2-one]
13 | 62 | CC(C)(O)C1CCN(c2nc(N[C@@H]3CCNC3=O)nc3c2cnn3-c2cccc(C(F)(F)F)c2)CC1 [Example I-15, (3R)-3-({4-[4-(2-hydroxypropan-2-yl)piperidin-1-yl]-1-[3-(trifluoromethyl)phenyl]-1H-pyrazolo[3,4-d]pyrimidin-6-yl}amino)pyrrolidin-2-one]
14 | 442 | CC(C)(O)C1CCN(c2nc(N[C@@H]3CNC(=O)C3(C)C)nc3c2cnn3-c2cccc(C(F)(F)F)c2)CC1 [Example I-17, (4S)-4-({4-[4-(2-hydroxypropan-2-yl)piperidin-1-yl]-1-[3-(trifluoromethyl)phenyl]-1H-pyrazolo[3,4-d]pyrimidin-6-yl}amino)-3,3-dimethylpyrrolidin-2-one]
15 | 18.4 | CCC1(O)CN(c2nc(N[C@H]3CCN(C)C3)nc3c2cnn3-c2cccc(C(F)(F)F)c2)C1 [Example I-18, 3-ethyl-1-(6-{[(3S)-1-methylpyrrolidin-3-yl]amino}-1-[3-(trifluoromethyl)phenyl]-1H-pyrazolo[3,4-d]pyrimidin-4-yl)azetidin-3-ol]
16 | 27 | CCC1(O)CN(c2nc(NC3CCS(=O)(=O)CC3)nc3c2cnn3-c2cccc(C(F)(F)F)c2)C1 [Example I-19, 1-{6-[(1,1-dioxidotetrahydro-2H-thiopyran-4-yl)amino]-1-[3-(trifluoromethyl)phenyl]-1H-pyrazolo[3,4-d]pyrimidin-4-yl}-3-ethlazetidin-3-ol]
17 | 78 | O=C1C[C@H](Nc2nc(N3CC[C@@H](N4CCOCC4)C3)c3cnn(-c4cccc(C(F)(F)F)c4)c3n2)CN1 [Example I-21, (4S)-4-({4-[(3R)-3-(morpholin-4-yl)pyrrolidin-1-yl]-1-[3-(trifluoromethyl)phenyl]-1H-pyrazolo[3,4-d]pyrimidin-6-yl}amino)pyrrolidin-2-one]
18 | 7.08 | CC(C)(O)CC1CCN(c2nc(N[C@@H]3CNC(=O)C3)nc3c2cnn3-c2cccc(C(F)(F)F)c2)CC1 [Example I-24, (4S)-4-({4-[4-(2-hydroxy-2-methylpropyl)piperidin-1-yl]-1-[3-(trifluoromethyl)phenyl]-1H-pyrazolo[3,4-d]pyrimidin-6-yl}amino)pyrrolidin-2-one]
19 | 23.9 | O=C1C[C@H](Nc2nc(N3CCOCC3)c3cnn(-c4cccc(C(F)(F)F)c4)c3n2)CN1 [Example I-28, (4S)-4-({4-(morpholin-4-yl)-1-[3-(trifluoromethyl)phenyl]-1H-pyrazolo[3,4-d]pyrimidin-6-yl}amino)pyrrolidin-2-one]
20 | 28.7 | O=C1C[C@H](Nc2nc(N3CC(O)C3)c3cnn(-c4cccc(C(F)(F)F)c4)c3n2)CN1 [Example I-32, (4S)-4-({4-(3-hydroxyazetidin-1-yl)-1-[3-(trifluoromethyl)phenyl]-1H-pyrazolo[3,4-d]pyrimidin-6-yl}amino)pyrrolidin-2-one]
